Assay results reported in the NIST ThermoML archive (doi:10.1016/j.jct.2014.04.016).

Details: for electrical conductivity / viscosity / mass density: 101.33 kPa, Liquid; for electrical conductivity: Alternating current cell with electrodes; for viscosity: Concentric cylinders viscometry; for mass density: Vibrating tube method

CCCCCCCCOS(=O)(=O)[O-].CCn1cc[n+](C)c1 [1-ethyl-3-methylimidazolium octyl sulfate]
Details | electrical conductivity [S/m] | mass density [kg/m3] | viscosity [mPa·s]
258.1 K | 0.002 | – | –
263.1 K | 0.003 | – | –
268.1 K | 0.005 | – | –
273.1 K | 0.008 | 1110.8 | 4561
278.1 K | 0.012 | 1107.4 | 2822
283.1 K | 0.017 | 1103.9 | 1815
288.1 K | 0.025 | 1100.5 | 1207
293.1 K | 0.034 | 1097.1 | 826.7
298.1 K | 0.046 | 1093.7 | 581
303.1 K | 0.06 | 1090.2 | 421.7
308.1 K | 0.078 | 1086.9 | 311.7
313.1 K | 0.098 | 1083.6 | 233.3
318.1 K | 0.124 | 1080.3 | 179.1
323.1 K | 0.153 | 1077.1 | 139.8
328.1 K | 0.193 | 1073.9 | 110.9
333.1 K | 0.232 | 1070.7 | 89.14
338.1 K | 0.279 | 1067.5 | 72.56
343.1 K | 0.329 | 1064.4 | 59.81
348.1 K | 0.385 | 1061.2 | 49.83
353.1 K | 0.447 | 1058.1 | 41.94
358.1 K | 0.514 | 1054.9 | 35.63
363.1 K | 0.584 | 1051.8 | 30.53
368.1 K | 0.661 | 1048.8 | 26.36
373.1 K | 0.731 | 1045.7 | 22.92

Details | Normal melting temperature [°C]
Crystal, visual observation | 10
